In PMC12133982, “Predominant T-cell epitopes of SARS-CoV-2 restricted by multiple prevalent HLA-B and HLA-C allotypes in Northeast Asia” (Frontiers in Immunology, 2025):
Values joined by “and” are separate entries in the source; they are usually repeats but may differ in a detail not shown here. Identical values can stand only once. Peptide text beside a SMILES is read from it.

Key:
[1] = biological target: HLA-B3501 (Homo sapiens, UniProt P01889, A329T/A93T/A95T/C349S/D201E/D98Y/E176V/E187L/E204Q/E69T/I218V/K202T/L119I/Q94N/R155S/R180L/S121R/S35A/S48A/T118I/V127L/V306I/V36M/Y140S/Y91F); test: Competitive peptide binding assay, CIR-B3501; conditions: HMy2.CIR-B3501 cells, reference Cy5-[…], class from inhibition at 5 and 15 μM, flow cytometry MFI; read-out: Binding affinity with HLA-B3501
Protocol: (§1) Then, competitive peptide binding assays were performed.

[2] = biological target: HLA-B1302 (Homo sapiens, UniProt P01889, A65T/A93T/A95T/D138N/D201E/D98Y/E176V/E204Q/E69M/E70A/G107R/K202T/L105A/L119W/N104T/N87E/Q94N/R106L/R155S/R169L/R180L/S101N/S121T/S35A/S48T/V127L/V36M/Y140L/Y91S); test: Competitive peptide binding assay, CIR-B1302; conditions: HMy2.CIR-B1302 cells, reference Cy5-MMWYWGPSL, class from inhibition at 5 and 15 μM, flow cytometry MFI; read-out: Binding affinity with HLA-B1302
Protocol: as §1

[3] = biological target: HLA-B4601 (Homo sapiens, UniProt P01889, A329T/A93R/C349S/D201E/E100V/E187L/E204Q/E69M/E70A/I90K/K202T/N87E/R155S/R180W/S121R/S35A/S48A/V306I/V36M/Y140S); test: Competitive peptide binding assay, CIR-B4601; conditions: for IC50: HMy2.CIR-B4601 cells, reference Cy5-[…], class from inhibition at 5 and 15 μM, flow cytometry MFI, read-out: Binding affinity with HLA-B4601
Protocol: as §1

[4] = biological target: HLA-B1301 (Homo sapiens, UniProt P01889, A65T/A93T/A95T/D138N/D201E/D98Y/E176V/E204Q/E69M/E70A/G107R/K202T/L105A/L119I/N104T/N87E/Q94N/R106L/R155S/R169L/R180L/S101N/S121R/S35A/S48T/T118I/V127L/V36M/Y140L/Y91S); test: Competitive peptide binding assay, CIR-B1301; conditions: HMy2.CIR-B1301 cells, reference Cy5-[…], class from inhibition at 5 and 15 μM, flow cytometry MFI; read-out: Binding affinity with HLA-B1301
Protocol: as §1

[5] = biological target: HLA-B1501 (Homo sapiens, UniProt P01889, A329T/A93T/A95T/C349S/D201E/D98Y/E187L/E204Q/E69M/E70A/K202T/N87E/Q94N/R155S/R180W/S121R/S35A/S48A/V306I/V36M/Y140S/Y91S); test: Competitive peptide binding assay, CIR-B1501; conditions: HMy2.CIR-B1501 cells, reference Cy5-[…], class from inhibition at 5 and 15 μM, flow cytometry MFI; read-out: Binding affinity with HLA-B1501
Protocol: as §1

[6] = biological target: HLA-B4403 (Homo sapiens, UniProt P01889, A223V/A65T/A93T/A95T/D201E/D98Y/E176V/E187L/E204Q/E69K/G107R/H137Y/K202T/L105A/L119I/N104T/N87E/Q56L/Q94N/R106L/R155S/R180L/S101N/S121R/S35A/S48T/T118I/V36M/W191S/Y140D/Y91S); test: Competitive peptide binding assay, CIR-B4403; conditions: HMy2.CIR-B4403 cells, reference Cy5-CYMEAVAL, class from inhibition at 5 and 15 μM, flow cytometry MFI; read-out: Binding affinity with HLA-B4403
Protocol: as §1

[7] = biological target: HLA-B5801 (Homo sapiens, UniProt P01889, A329T/C349S/D201E/D98Y/E176V/E187L/E204Q/E69T/G107R/I218V/I90N/K202T/L105A/L119I/N104I/N87E/Q89R/Q94S/R106L/R155S/R180L/R86G/S101N/S121R/S35A/S48A/T118I/V127L/V306I/V36M/Y140S/Y91M); test: Competitive peptide binding assay, CIR-B5801; conditions: HMy2.CIR-B5801 cells, reference Cy5-[…], class from inhibition at 5 and 15 μM, flow cytometry MFI; read-out: Binding affinity with HLA-B5801
Protocol: as §1

[8] = biological target: HLA-B1502 (Homo sapiens, UniProt P01889, A329T/A93T/A95T/C349S/D201E/D98Y/E187L/E204Q/E69M/E70A/H137Y/K202T/L119I/Q94N/R155S/R180L/S121R/S35A/S48A/T118I/V306I/V36M/Y140S/Y91S); test: Competitive peptide binding assay, CIR-B1502; conditions: HMy2.CIR-B1502 cells, reference Cy5-[…], class from inhibition at 5 and 15 μM, flow cytometry MFI; read-out: Binding affinity with HLA-B1502
Protocol: as §1

[9] = biological target: T1, HLA-B0702 (Homo sapiens, UniProt P01889); test: Competitive peptide binding assay, CIR-B0702; conditions: HMy2.CIR-B0702 cells, reference Cy5-[…], class from inhibition at 5 and 15 μM, flow cytometry MFI
T1 construct: expressed in transfected cells; host or cells: HMy2.CIR
Protocol: as §1

[10] = biological target: HLA-B4001 (Homo sapiens, UniProt P01889, A65T/A93T/A95T/D138N/D98Y/E176V/E69K/N87E/Q56L/Q94N/R180L/S121R/S35A/S48T/T167S/V36M/W171L/Y33H/Y91S); test: Competitive peptide binding assay, CIR-B4001; conditions: HMy2.CIR-B4001 cells, reference Cy5-[…], class from inhibition at 5 and 15 μM, flow cytometry MFI; read-out: Binding affinity with HLA-B4001
Protocol: as §1

`CC(C)C[C@H](NC(=O)[C@H](CC(N)=O)NC(=O)[C@H](CCCCN)NC(=O)[C@@H](NC(=O)[C@H](CCCNC(=N)N)NC(=O)[C@H](CO)NC(=O)[C@H](Cc1ccc(O)cc1)NC(=O)[C@@H](NC(=O)[C@@H](N)Cc1ccc(O)cc1)C(C)C)C(C)C)C(=O)O` [Epitope Y3] (H-YVYSRVKNL-OH; N-terminus and C-terminus assumed) was tested, and the IC50 [1] was over 15 µM, the IC50 [2] was over 15 µM and the IC50 [3] was over 15 µM. The IC50 [4] was over 15 µM, the IC50 [5] was 5 to 15 µM and the IC50 [6] was under 5 µM.

Work on `CC[C@H](C)[C@H](NC(=O)[C@H](CCCNC(=N)N)NC(=O)[C@H](CC(C)C)NC(=O)[C@H](CCSC)NC(=O)[C@H](CC(N)=O)NC(=O)[C@@H]1CCCN1C(=O)[C@H](CCSC)NC(=O)[C@H](C)NC(=O)[C@@H](N)CCCNC(=N)N)C(=O)O` [Epitope Y77] (H-RAMPNMLRI-OH; N-terminus and C-terminus assumed) yielded an IC50 [1] of over 15 µM, an IC50 [2] of under 5 µM and an IC50 [3] of 5 to 15 µM. The IC50 [4] was over 15 µM, the IC50 [7] was 5 to 15 µM and the IC50 [6] was over 15 µM.

With `CC[C@H](C)[C@H](NC(=O)[C@H](CC(C)C)NC(=O)[C@H](CCC(N)=O)NC(=O)[C@H](CCC(N)=O)NC(=O)[C@@H](NC(=O)[C@@H](NC(=O)[C@H](Cc1ccc(O)cc1)NC(=O)[C@@H](NC(=O)[C@H](CCC(N)=O)NC(=O)[C@@H](N)CC(C)C)[C@@H](C)O)C(C)C)[C@@H](C)O)C(=O)O` [Epitope Y118] (H-LQTYVTQQLI-OH; N-terminus and C-terminus assumed) the IC50 [1] was over 15 µM, the IC50 [2] was < 5 µM and 5 to 15 µM and the IC50 [3] was over 15 µM. The IC50 [7] was over 15 µM, the IC50 [6] was 5 to 15 µM and the IC50 [8] was over 15 µM.

In the case of `CSCC[C@H](NC(=O)[C@H](CO)NC(=O)[C@H](CCC(N)=O)NC(=O)[C@H](CCC(N)=O)NC(=O)[C@H](CC(C)C)NC(=O)[C@H](CCC(N)=O)NC(=O)[C@H](CCCCN)NC(=O)[C@H](CO)NC(=O)[C@@H](N)Cc1ccccc1)C(=O)O` [Epitope Y135] (H-FSKQLQQSM-OH; N-terminus and C-terminus assumed), the IC50 [1] is reported as over 15 µM, the IC50 [3] is reported as under 5 µM and the IC50 [4] is reported as over 15 µM. For the same compound, the IC50 [7] was 5 to 15 µM, the IC50 [9] was 5 to 15 µM and the IC50 [5] was under 5 µM.

In the case of `CSCC[C@H](NC(=O)[C@H](C)NC(=O)[C@@H]1CCCN1C(=O)[C@H](CC(=O)O)NC(=O)[C@H](C)NC(=O)[C@H](C)NC(=O)[C@H](Cc1ccc(O)cc1)NC(=O)[C@@H](NC(=O)[C@@H](N)CC(C)C)C(C)C)C(=O)O` [Epitope Y165] (H-LVYAADPAM-OH; N-terminus and C-terminus assumed), the IC50 [1] is reported as under 5 µM, the IC50 [10] is reported as over 15 µM and the IC50 [3] is reported as 5 to 15 µM. The IC50 [4] was 5 to 15 µM, the IC50 [7] was over 15 µM and the IC50 [9] was 5 to 15 µM. For the same compound, the IC50 [5] was over 15 µM and the IC50 [8] was 5 to 15 µM.

In the case of `CC(C)C[C@H](NC(=O)[C@H](CC(=O)O)NC(=O)[C@H](C)NC(=O)[C@H](C)NC(=O)[C@@H]1CCCN1C(=O)[C@@H](N)CC(C)C)C(=O)N[C@@H](CC(=O)O)C(=O)N[C@@H](CC(=O)O)C(=O)N[C@@H](Cc1ccccc1)C(=O)O` [Epitope Y180] (H-LPAADLDDF-OH; N-terminus and C-terminus assumed), the IC50 [3] is reported as over 15 µM, the IC50 [4] is reported as over 15 µM and the IC50 [7] is reported as over 15 µM. It also gave an IC50 [9] of over 15 µM, an IC50 [5] of 5 to 15 µM and an IC50 [8] of over 15 µM.

`CSCC[C@H](NC(=O)[C@H](C)NC(=O)[C@@H](N)Cc1ccccc1)C(=O)N[C@@H](CCC(N)=O)C(=O)N[C@@H](CCSC)C(=O)N[C@@H](C)C(=O)N[C@@H](Cc1ccc(O)cc1)C(=O)N[C@@H](CCCNC(=N)N)C(=O)N[C@@H](Cc1ccccc1)C(=O)O` [Epitope Y189] showed an IC50 [1] of 5 to 15 µM, an IC50 [3] of under 5 µM and an inhibition at 5 µM ([3]; read-out: Inhibition % of Cy5-reference peptide binding, CIR-B4601, 5μM peptide) of 74.8%. For the same compound, the inhibition at 15 µM ([3]; read-out: Inhibition % of Cy5-reference peptide binding, CIR-B4601, 15μM peptide) was 92.9%, the IC50 [4] was 5 to 15 µM and the IC50 [7] was over 15 µM. The IC50 [9] was under 5 µM, the IC50 [5] was over 15 µM and the IC50 [8] was over 15 µM.

With `CC(C)C[C@H](NC(=O)[C@H](CC(C)C)NC(=O)[C@@H](NC(=O)[C@@H](NC(=O)[C@@H](NC(=O)[C@H](CCC(N)=O)NC(=O)[C@H](CCC(N)=O)NC(=O)[C@H](CCCCN)NC(=O)[C@@H](N)CCCCN)[C@@H](C)O)C(C)C)[C@@H](C)O)C(=O)O` [Epitope Y196] (H-KKQQTVTLL-OH; N-terminus and C-terminus assumed) the IC50 [1] was over 15 µM, the IC50 [2] was 5 to 15 µM and the IC50 [3] was under 5 µM. It also gave an IC50 [4] of over 15 µM, an IC50 [7] of over 15 µM and an IC50 [9] of over 15 µM. For the same compound, the IC50 [5] was over 15 µM.

`CC(C)C[C@H](NC(=O)[C@H](CC(C)C)NC(=O)[C@H](C)NC(=O)[C@H](CCC(N)=O)NC(=O)[C@H](CCCNC(=N)N)NC(=O)[C@@H](NC(=O)[C@H](CCCNC(=N)N)NC(=O)[C@H](CCC(=O)O)NC(=O)CN)C(C)C)C(=O)O` [Epitope Y202] (H-GERVRQALL-OH; N-terminus and C-terminus assumed) was tested, and the IC50 [1] was over 15 µM, the IC50 [2] was over 15 µM and the IC50 [3] was 5 to 15 µM. It also gave an IC50 [4] of over 15 µM, an IC50 [7] of over 15 µM and an IC50 [9] of over 15 µM. The IC50 [5] was over 15 µM and the IC50 [8] was over 15 µM.

Work on `CC[C@H](C)[C@H](NC(=O)[C@@H](NC(=O)[C@H](CC(C)C)NC(=O)[C@H](CCC(=O)O)NC(=O)[C@H](CO)NC(=O)[C@H](CCC(=O)O)NC(=O)[C@@H](N)CC(C)C)C(C)C)C(=O)NCC(=O)N[C@@H](C)C(=O)N[C@H](C(=O)O)C(C)C` [Epitope Y211] (H-LESELVIGAV-OH; N-terminus and C-terminus assumed) yielded an IC50 [1] of over 15 µM, an IC50 [2] of over 15 µM and an IC50 [10] of 5 to 15 µM. For the same compound, the IC50 [3] was over 15 µM, the IC50 [4] was over 15 µM and the IC50 [7] was over 15 µM. For the same compound, the IC50 [9] was over 15 µM, the IC50 [5] was 5 to 15 µM and the IC50 [8] was over 15 µM.

`CC[C@H](C)[C@H](N)C(=O)N[C@@H](C)C(=O)N[C@@H](CCSC)C(=O)N[C@@H](C)C(=O)N[C@@H](CS)C(=O)N[C@@H](CC(C)C)C(=O)N[C@H](C(=O)NCC(=O)N[C@@H](CC(C)C)C(=O)O)C(C)C` [Epitope Y253] (H-IAMACLVGL-OH; N-terminus and C-terminus assumed) gave an IC50 [1] of over 15 µM, an IC50 [2] of 5 to 15 µM and an IC50 [3] of under 5 µM. The IC50 [4] was 5 to 15 µM, the IC50 [7] was over 15 µM and the IC50 [5] was over 15 µM. The IC50 [6] was 5 to 15 µM and the IC50 [8] was over 15 µM.
